# Source: patent US20100035932A1, “NOVEL FORMYL PEPTIDE RECEPTOR LIKE 1 AGONISTS THAT INDUCE MACROPHAGE TUMOR NECROSIS FACTOR ALPHA AND COMPUTATIONAL STRUCTURE-ACTIVITY RELATIONSHIP ANALYSIS OF THEREOF” (priority 2008, published 2010)
# Like-named read-outs stand apart in the source and are kept apart here.
# Legend:
# J774.A1 macrophages [1] = assay: TNF-α production in J774.A1 macrophages (ELISA); format: cell-based, murine; details: for fold induction at 50 µM: Mus musculus, J774.A1, 24 h, relative fold of activation compared to vehicle (DMSO) control for 50 μM compound, N.A. = no activity was observed, read-out: TNF-α production
# human neutrophils [2] = assay: Ca2+ mobilization in human neutrophils (FLIPR Calcium 3); details: Neutrophil
# J774.A1 macrophages [3] = assay: cells; details: Mus musculus, J774.A1, read-out: Ca2+ Mobilization EC50, Murine Mφ
# Description: Murine macrophage J774.A1 cells were cultured in DMEM supplemented with 10% (v/v) heat-inactivated fetal bovine serum (FBS), 10 mM HEPES, 100 μg/ml streptomycin, and 100 U/ml penicillin. Cells were grown to confluence in sterile tissue culture flasks and gently detached by scraping. […] All cell cultures were grown at 37° C. in a humidified atmosphere containing 5% CO2. Cell number and viability were assessed microscopically using trypan blue exclusion.
# FPRL1 = target: T1, FPRL1 (Homo sapiens, UniProt P25090); assay: Ca2+ mobilization in RBL-FPRL1 cells; format: cell-based
# T1 construct: expressed in transfected cells; host or cells: rat basophilic leukemia RBL-2H3 cells (RBL-FPRL1)
# T1 sequence (P25090 1-351): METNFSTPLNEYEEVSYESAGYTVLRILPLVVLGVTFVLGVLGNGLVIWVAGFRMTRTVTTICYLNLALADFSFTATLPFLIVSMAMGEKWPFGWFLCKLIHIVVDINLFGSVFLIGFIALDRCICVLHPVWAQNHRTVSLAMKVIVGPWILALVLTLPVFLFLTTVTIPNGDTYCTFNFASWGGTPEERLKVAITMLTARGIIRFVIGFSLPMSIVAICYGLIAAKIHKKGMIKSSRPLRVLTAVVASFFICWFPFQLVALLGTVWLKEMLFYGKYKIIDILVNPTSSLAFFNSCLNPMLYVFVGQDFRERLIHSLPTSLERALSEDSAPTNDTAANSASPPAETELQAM
# J774.A1 cells = assay: Cytotoxicity assay (CellTiter-Glo); format: cell-based, murine; details: J774.A1, 24 hr
# Description: Cytotoxicity was analyzed with a CellTiter-Glo Luminescent Cell Viability Assay Kit (Promega, Inc., Madison, Wis.), according to the manufacturer's protocol. Briefly, J774.A1 cells were cultured at a density of 3×10^4 cells/well with the test compounds for 24 hr at 37° C. and 5% CO2, substrate was added, and luminescence signal in the samples was analyzed with a Fluoroscan Ascent FL.
# [4] = tested on: human monocyte-derived macrophages; assay: TNF-α production in human monocyte-derived macrophages (ELISA); format: cell-based; details: 24 hr, various concentrations
# Description: (§1) Cells were treated for 24 hr with DMSO control, test compound, or LPS and mouse TNF-α or IL-6 and human TNF-α enzyme-linked immunosorbent assay (ELISA) kits (BD Biosciences Pharmigen) were used to detect these cytokines in the cell supernatants. Cytokine concentration was determined by extrapolation from the TNF-α/IL-6 standard curve, according to the manufacturer's protocol.
# (§2) For treatments, cells were plated in 96-well microtiter plates at 2×10^5 cells/well (J774.A1, MonoMac6) or 6×10^4 cells/well (human monocyte-derived macrophages) using their respective culture media, except FBS was reduced to 3% (v/v). After incubation overnight (5% CO2, 37° C.), the media were removed and replaced with fresh media containing test compounds.
# [5] = tested on: human MonoMac6 macrophages; assay: TNF-α production in MonoMac6 cells (ELISA); format: cell-based; details: 24 hr, various concentrations
# [6] = tested on: murine peritoneal macrophages; assay: TNF-α production in murine peritoneal macrophages (ELISA); format: cell-based; details: 24 hr, various concentrations
# Description: Bone marrow leukocytes were flushed from tibias and femurs of BALB/c mice with HBSS− supplemented with 0.1% BSA and 1% glucose and the neutrophils were purified on Percoll density gradients, as previously described (Schepetkin et al., 2007). Peritoneal macrophages were isolated from BALB/c mice 4 days after intraperitoneal injection of 1 ml saline containing 100 μg concanavalin A, as described previously (Schepetkin et al., 2005). Peritoneal exudate cells were suspended in RPMI 1640 containing 10% (v/v) FBS with antibiotics (penicillin and streptomycin) and incubated at 37° C. in 100 mm tissue culture dishes for 1 h. Adherent peritoneal macrophages were harvested and cultured with the compounds under investigation for 24 hr at 37° C. and 5% CO2.
# as §1
# human neutrophils [7] = assay: Chemotaxis assay, human neutrophils; format: cell-based; details: percent of response induced by 50 nM IL-8
# J774.A1 macrophages [8] = assay: IL-6 production in J774.A1 macrophages (ELISA); format: cell-based, murine; details: J774.A1, 24 hr
# Description: as §1, §2
# human neutrophils [9] = assay: ROS production in human neutrophils (L-012 luminescence); format: cell-based; details: Neutrophil, concentration that enhanced ROS production by 50% above background, read-out: ROS Production AC50, Human PMN
# Description: J774.A1 macrophages were plated at density of 1.5×10^5 cells/well in wells of 96-well flat-bottom white microtiter plates (Corning Incorporated, Costar). After 16 hr (5% CO2, 37° C.), the media was aspirated, and test compounds or vehicle (final DMSO concentration of 1%) were added in fresh media (DMEM without phenol red, supplemented with 3% (v/v) FBS). After 5 min, the media was replaced by HBSS+ containing 4 μM L-012 and 8 μg/ml HRP, and luminescence was monitored for 120 min (2-min intervals) at 37° C. using a Fluoroscan Ascent FL microtiter plate reader (Thermo Electron, Waltham, Mass.). The curve of light intensity (in relative luminescence units) was plotted against time, and the area under the curve was calculated as total luminescence. The percent activation of ROS was calculated as follows: % activation=(sample-DMSO control)/DMSO control×100. The minimal compound concentration that enhanced ROS production by 50% above background control cells (AC50) was determined by graphing the % activation of ROS vs. log [test compound]. Each curve was determined using five to seven compound concentrations. Human neutrophils were plated at density of 5×10^5 cells/well in wells of 96-well flatbottom white microtiter plates, and compounds under investigation or vehicle (final DMSO concentration of 1%) were added. After 5 min, the media was replaced by HBSS+ containing […] L-012, and luminescence was monitored for 120 min (2-min intervals) at 37° C. using a Fluoroscan Ascent FL microtiter plate reader. The results were analysed as described above to determine % activation and AC50 values.
# J774.A1 macrophages [10] = assay: ROS production in J774.A1 macrophages (L-012 luminescence); format: cell-based; details: Mus musculus, concentration that enhanced ROS production by 50% above background, read-out: ROS Production AC50, Murine Mφ
# Description: (§3) Murine macrophage J774.A1 cells were cultured in DMEM supplemented with 10% (v/v) heat-inactivated fetal bovine serum (FBS), 10 mM HEPES, 100 μg/ml streptomycin, and 100 U/ml penicillin. Cells were grown to confluence in sterile tissue culture flasks and gently detached by scraping. Human monocyte/macrophage MonoMac6 cells (DSMZ, Germany) were cultured in RPMI 1640 supplemented with 10% (v/v) FBS, 10 μg/ml bovine insulin, 100 μg/ml streptomycin, and 100 U/ml penicillin. Rat basophilic leukemia (RBL-2H3) cells transfected with human FPR (RBL-FPR) or FPRL1 (RBL-FPRL1) were cultured in DMEM supplemented with 20% (v/v) FBS, 10 mM HEPES, 100 μg/ml streptomycin, and 100 U/ml penicillin, as described previously (Nanamori et al., 2004). Human monocytic THP-1 cells were cultured in RPMI 1640 medium supplemented with 10% (v/v) FBS, 100 μg/ml streptomycin, and 100 U/ml penicillin. All cell cultures were grown at 37° C. in a humidified atmosphere containing 5% CO2. Cell number and viability were assessed microscopically using trypan blue exclusion.
# J774.A1 macrophages were plated at density of 1.5×10^5 cells/well in wells of 96-well flat-bottom white microtiter plates (Corning Incorporated, Costar). […] After 5 min, the media was replaced by HBSS+ containing 4 μM L-012 and 8 μg/ml HRP, and luminescence was monitored for 120 min (2-min intervals) at 37° C. using a Fluoroscan Ascent FL microtiter plate reader (Thermo Electron, Waltham, Mass.). The curve of light intensity (in relative luminescence units) was plotted against time, and the area under the curve was calculated as total luminescence. The percent activation of ROS was calculated as follows: % activation=(sample-DMSO control)/DMSO control×100. The minimal compound concentration that enhanced ROS production by 50% above background control cells (AC50) was determined by graphing the % activation of ROS vs. log [test compound]. Each curve was determined using five to seven compound concentrations. […] The results were analysed as described above to determine % activation and AC50 values.
# murine neutrophils = assay: Chemotaxis assay, murine neutrophils; format: cell-based; details: percent of response induced by 50 nM KC
# [11] = tested on: human monocytic cells THP-1; assay: TNF-α production in THP-1 cells (ELISA); format: cell-based; details: 24 hr, various concentrations
# Description: as §3, with “All cell cultures were grown at 37° C. in a humidified atmosphere containing 5% CO2.” left out
# as §1
SMILES,fold induction at 50 µM (J774.A1 macrophages [1]),EC50 (human neutrophils [2]; read-out: [Ca2+]i EC50) [µM],also measured
O=C(N/N=C1\C(=O)N(CCc2ccccc2)c2ccccc21)c1ccc2c(c1)OCO2 [Compound 17],< 2,8.9,–
Cc1ccc(C(=O)N/N=C/c2ccc(-c3cccc(C(F)(F)F)c3)o2)cn1 [Compound 9],< 5,15.8,"TNF-α production, primary screening of agonists AG 1-26 (J774.A1 macrophages [1]; murine J774.A1 macrophages): induced modest levels of TNF-α production"
Cc1ccc(C(=O)N/N=C/c2ccc(-c3cc(Cl)c(Cl)cc3Cl)o2)cn1 [Compound 10],< 5,32,–
"C[C@H](CCC(=O)O)C[C@H](C)C[C@H](C)C(=O)/C=C(\O)[C@H](C)C[C@H](C)C/C=C/[C@@H](C)[C@@H](O)[C@@H](C)[C@@H](O)C[C@@H]1CC[C@@](C)([C@H]2CC[C@@](C)([C@@H](C)O)O2)O1 [ionomycin, reference compound]",–,–,EC50 (J774.A1 macrophages [3]): 580 ± 300 nM
CN(C)c1ccc(/C=N\NC(=O)c2ccc([N+](=O)[O-])cc2)cc1 [Compound 4],20 to 25,9,–
CCOc1cc(/C=N\NC(=O)c2ccc3c(c2)OCO3)cc(Br)c1O [Compound 18],< 2,12.2,–
O=C(N/N=C/c1ccc(-c2ccc([N+](=O)[O-])cc2Cl)o1)c1ccc2c(c1)OCO2 [Compound 3],30 to 40,0.3,–
CCOc1cc(/C=N/NC(=O)c2ccc3c(c2)OCCO3)cc(Br)c1O [Compound 21],< 2,21.9,–
O=C(N/N=C/c1ccc(-c2cccc(Cl)c2Cl)o1)c1ccccc1 [Compound 5],7 to 10,2.3,–
"O=C(N/N=C/c1ccc(-c2cccc(C(F)(F)F)c2)o1)c1ccc(F)cc1 [Compound 2, 4-fluoro-benzoic acid [5-(3-trifluoromethyl-phenyl)-2-furyl]methylene-hydrazide]",30 to 40,0.6,"Effect of Boc-2 (FPR/FPRL1 antagonist) on compound-induced TNF-α production (J774.A1 macrophages [1]; pretreated 5 min with Boc 2 (40 μM), then 50 μM compound 24 hr): inhibited; Effect of WRW4 (FPRL1 antagonist) on compound-induced TNF-α production (J774.A1 macrophages [1]; pretreated 5 min with WRW4 (10 μM), then 50 μM compound 24 hr): inhibited; Effect of PTX on induced TNF-α production (J774.A1 macrophages [1]; pretreated 30 min with PTX (0.4 and 1 μg/ml), then Compound 50 μM or LPS 50 ng/ml for 12 hr): significantly inhibited; Effect of ActD or CHX on compound-induced TNF-α production (J774.A1 macrophages [1]; pretreated with ActD 1 μg/ml or CHX 5 μg/ml 30 min, then 50 μM compound 12 hr): completely inhibited; EC50 (human neutrophils [2]; read-out: Ca2+ Mobilization EC50, Human PMN): 0.6 ± 0.4 µM; EC50 (FPRL1): 18.3 µM; Effect on cell viability (J774.A1 cells): had no effect on cell viability; TNF-α production in human monocyte-derived macrophages [4]: induced TNF-α production in a concentration-dependent manner; TNF-α production in MonoMac6 cells [5]: induced TNF-α production in a concentration-dependent manner; TNF-α production in murine peritoneal macrophages [6]: induced TNF-α production in a concentration-dependent manner; Chemotaxis (%), Human PMN (human neutrophils [7]): 91.3 ± 1.6%; IL-6 production (J774.A1 macrophages [8]): induced secretion of IL-6; AC50 (human neutrophils [9]): 200 ± 40 nM; AC50 (J774.A1 macrophages [10]): 8.6 ± 2.7 µM; Chemotaxis (%), Murine PMN (murine neutrophils): 58.0 ± 1.4%; EC50 (J774.A1 macrophages [3]): 2300 ± 150 nM; TNF-α production in THP-1 cells [11]: induced TNF-α production in a concentration-dependent manner"
COc1cc(/C=N\NC(=O)c2cccc(C)c2O)ccc1OCc1ccccc1 [Compound 25],–,0.74,–
O=C(N/N=C/c1cc(Br)cc(Br)c1OC(=O)c1cccc(F)c1)c1ccc2c(c1)OCO2 [Compound 20],< 2,18.9,–
O=C(N/N=C/c1ccc(-c2ccc(Cl)c(Cl)c2)o1)c1ccc2c(c1)OCO2 [Compound 8],< 5,11.9,–
O=C(N/N=C/c1ccc(-c2cc(Cl)ccc2Cl)o1)c1ccc([N+](=O)[O-])cc1 [Compound 7],< 5,10,–
COc1ccc(/C=N/NC(=O)c2ccc3c(c2)OCO3)c(OC)c1 [Compound 38],–,28.1,–
O=C(N/N=C/c1ccco1)c1ccccc1 [Compound 39],–,28.4,Determined class of macrophage TNF-α inducing activity (J774.A1 macrophages [1]; experimentally determined class): NA (inactive derivatives were placed in the nonactive group labeled “NA”)
O=C(N/N=C/c1c(O)ccc2ccccc12)c1ccc2c(c1)OCO2 [Compound 37],–,26.8,–
O=C(N/N=C/c1ccc(-c2ccc(O)c(C(=O)O)c2)o1)c1cccnc1 [Compound 32],–,12.5,–
CN(C)c1ccc(/C=N\NC(=O)c2ccccc2)cc1 [Compound 19],< 2,14.5,–
